Some test systems named below: SK-OV-3 ovarian; TK-10 renal; SNB-19 CNS; SR leukemia; T-47D breast; SN12C renal; HT29 colon; 786-0 renal; MALME-3M melanoma; HS 578T breast.
Common to all, as to test: NCI-60 cell line screen, 48 h

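Interpolation was linear, between the two tested concentrations surrounding the appropriate level; five concentrations were tested over 48 hours in 96-well plates. Abbreviation: GI50, concentration required for 50% inhibition of growth. TGI: concentration producing complete growth inhibition.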

From PubChem BioAssay (NCI) come the findings set out here.

As for `CN(C)CC1CCC2=C(C1=O)C(c1ccc(Cl)c(Cl)c1)C1=C(CCC(CN(C)C)C1=O)O2` (stereo not given), the GI50 in the assay with SK-OV-3 ovarian was 13.3 µM; in the assay on TK-10 renal, 0.7 µM; in the assay with SNB-19 CNS, 16 µM; in the assay with SR leukemia, 1.44 µM; in the assay on T-47D breast, 2.05 µM; with SN12C renal, 14 µM. Further, the GI50 is 8.57 µM in the assay with HT29 colon, 1.58 µM in the assay on 786-0 renal, 14.9 µM with MALME-3M melanoma and 15.6 µM in the assay with HS 578T breast. The TGI in the assay on SK-OV-3 ovarian was 26 µM; in the assay with TK-10 renal it was 1.98 µM; with SNB-19 CNS, 29.7 µM; in the assay on SR leukemia, 5.37 µM; in the assay with T-47D breast, 7.9 µM; in the assay on SN12C renal, 30.2 µM. The TGI was 22.4 µM in the assay with HT29 colon, 2.98 µM in the assay on 786-0 renal, 29.5 µM in the assay with MALME-3M melanoma and 36.2 µM in the assay on HS 578T breast.
